The test system of series [1] is MM.1R. Briefly: Downregulation of HK2 expression in human MM1.R cells measured after 24 hrs by qRT-PCR analysis. Format: functional, cell-based. Particulars: dose 0.125-1 µM. A general note: Real-time PCR tracks product formation cycle by cycle.
In series [2] the target is T1, Interferon regulatory factor 4 (Homo sapiens) (UniProt Q15306).
T1 sequence (whole entry): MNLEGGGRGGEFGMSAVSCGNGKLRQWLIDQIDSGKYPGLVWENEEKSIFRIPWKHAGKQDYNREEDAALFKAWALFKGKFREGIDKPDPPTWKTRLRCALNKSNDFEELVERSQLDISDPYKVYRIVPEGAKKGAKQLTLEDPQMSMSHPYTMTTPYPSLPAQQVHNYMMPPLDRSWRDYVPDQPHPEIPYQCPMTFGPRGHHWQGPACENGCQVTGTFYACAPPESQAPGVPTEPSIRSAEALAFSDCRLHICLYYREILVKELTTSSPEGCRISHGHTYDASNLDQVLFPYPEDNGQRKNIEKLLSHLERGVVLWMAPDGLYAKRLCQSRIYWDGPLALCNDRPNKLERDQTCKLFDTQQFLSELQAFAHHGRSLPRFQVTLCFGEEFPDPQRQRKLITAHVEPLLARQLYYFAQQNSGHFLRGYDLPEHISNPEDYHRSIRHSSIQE
Briefly: Induction of thermal stabilization of IRF4 in human NCI-H929 cells at 42 to 42.3 degree C by […] method. Format: cell-based.

Series [3] concerns NCI-H929. Nature of the series: Induction of cell cycle arrest in human NCI-H929 cells assessed as accumulation of cells at G1 phase at 0..5 uM measured after 24 hrs by flow cytometry analysis (reference value: 54.12%). Format: functional. (In flow cytometry, cells or beads pass a laser one at a time.)
For series [4], the system named is MM.1R. Briefly: Antiproliferative activity against human MM1.R cells with siRNA mediated IRF4#2 knockdown at 0.125 to 1 uM measured upto 5 days by MTS assay. The format is functional, cell-based. Particulars: dose 0.125-1 µM, time <= 5.0 day. A general note: Tetrazolium assays rely on reduction of a dye to a coloured formazan, in cell work by metabolically active cells.

The subject of another series is HaCaT. Nature of the series: Effect on IRF4 expression in human HaCaT cells by Western blot analysis. The format is functional, cell-based.
The nature of series [5]: Toxicity in Balb/C nude mouse assessed as change in body weight at 12.5 to 25 mg/kg administered once daily and measured every three days for 34 days. Format: organism-based. Particulars: in vivo, 816 h, dose 12.5-25 mg/kg, time 34 day.
For series [6], the system named is NCI-H929. Briefly: Antitumor activity against human NCI-H929 cells xenografted in Balb/C nude mouse model assessed as inhibition of ERK phosphorylation level at 25 mg/kg by Western blot analysis. The format is functional, organism-based.
Series [7] can be described thus: Antiproliferative activity against human MM1.R cells assessed as inhibition of cell viability measured after 72 hrs by MTS assay. Format: functional, cell-based. The settings on record: MM.1R.
For series [8], the target named is T2, Interferon regulatory factor 4 (Homo sapiens, UniProt Q15306).
T2 sequence (Q15306 whole entry): T1 sequence (whole entry)
Nature of the series: Binding affinity to IRF4 (unknown origin) assessed as dissociation constant by SPR analysis.

Series [9] is described as follows: AUC (0 to infinity) in ICR mouse plasma at 1.0 mg/kg, iv. Format: ADME, organism-based.
The subject of series [10] is NCI-H929. Briefly: Induction of cell cycle arrest in human NCI-H929 cells assessed as accumulation of cells at G1 phase at 0.125 uM measured after 24 hrs by flow cytometry analysis (reference value: 54.12%). Format: functional.
Series [11] relates to MM.1R. Nature of the series: Effect on IRF4 expression in human MM1.R cells with siRNA mediated IRF4 knockdown by Western blot analysis. The format is functional, cell-based.
The subject of series [12] is MM.1R. Briefly: Antiproliferative activity against human MM1.R cells with siRNA mediated IRF4 knockdown measured upto 5 days by MTS assay. Format: functional, cell-based. Particulars: time <= 5.0 day.
The test system of series [13] is NCI-H929. Nature of the series: Induction of cell cycle arrest in human NCI-H929 cells assessed as accumulation of cells at S phase at 0.5 uM measured after 24 hrs by flow cytometry analysis (reference value: 32.14%). The format is functional.
Series [14] can be described thus: Clearance in ICR mouse plasma at 1.0 mg/kg, iv. The format is ADME, organism-based.
Series [15] deals with NCI-H929. Nature of the series: Induction of cell cycle arrest in human NCI-H929 cells assessed as inhibition of cyclin D1 protein expression at 0.1 to 1 uM. The format is functional, cell-based. The settings on record: dose 0.1-1 µM.

From ChEMBL document CHEMBL6121019, “Design, synthesis and biological evaluation of bisnoralcohol derivatives as novel IRF4 inhibitors for the treatment of multiple myeloma” (Eur J Med Chem, 2025) come the findings set out here.

The structures appear in SMILES notation. Activity calls are given as the source filed them. The calls are words filed in the database; no cut-off is given here.

For `COc1ccc(NC(=O)[C@@H](C)[C@H]2CC[C@H]3[C@@H]4C(=O)C=C5C(C)(C)C(=O)C(C#N)=C[C@]5(C)[C@H]4CC[C@]23C)cc1`, the result (in the series with MM.1R [1]; in [2]; in the series on MM.1R [4]; with NCI-H929 [6]; in the series on MM.1R [11]; in the series with MM.1R [12]) was Active. In addition, the result with NCI-H929 [15] was Active. For the same compound, the Activity is listed as 64.61% in the series with NCI-H929 [3], “Non-toxic” in series [5], 57.62% in the series with NCI-H929 [10] and 20.54% with NCI-H929 [13]. Moreover, the result with HaCaT was inactive. Moreover, the IC50 (in general, the midpoint of a concentration-inhibition curve) in series [7] amounted to 0.11 µM. In [8], the Kd – broadly, the equilibrium constant for the complex coming apart – was found to be 1.28 µM. For the same compound, in series [9], the AUC(0-inf) (commonly the area under the concentration-time curve extrapolated to infinity) was determined as 86 ng·h/mL. Also, the clearance (usually the volume of plasma or blood freed of the substance per unit of time) in series [14] is 197 mL/min/kg.
